The test system of data set [1] is root-knot nematodes (Meloidogyne spp.). Description: nematocidal activity on hatched root-knot nematodes in Petri dish. To be noted: 15 nematodes.
Description: The tomato roots infected with root-knot nematodes were washed with running water and were then cut to a size of about 1 cm, after which 50 g of the cut roots were placed in a 500 ml round-bottom flask containing 200 ml of 0.5% sodium hypochloride (NaOCl), stopped with a rubber stopper, and shaken vigorously for 3 min to sterilize the roots and at the same time burst the egg bag. Thereafter, the solution was passed through a sieve in which 200 mesh was superimposed on 500 mesh, and washed with distilled water, so the eggs of the root-knot nematodes from which the NaOCl solution was removed were recovered.
Next, the eggs of the root-knot nematodes thus recovered were surface-sterilized with 0.5% NaOCl for 10 min, washed thoroughly with sterile distilled water, placed in a phosphate buffer (1%) containing sterilized normal saline, and hatched in an incubator at 25° C.
Thereafter, each mixed solution was diluted to 2000 ppm, 2 to 3 ml thereof was poured into a Petri dish, after which 15 hatched root-knot nematodes were placed in the Petri dish, and nematocidal activity was measured and the results thereof are shown in Table 1 below.
The number of root-knot nematodes used for the experiment on the number of killed root-knot nematodes was 15 at each dilution factor.
For another data set, the system named is tomato seedlings. Nature of the data set: phytotoxicity of geraniol, drenching treatment of potted tomato seedlings. Type of data set: in vivo. The conditions noted are these: 1 week after treatment; for Extent of phytotoxicity (0-5) / Phytotoxicity symptom: 50 ml drench, tomato. From the text: Sterilized soil was uniformly mixed, 300 g thereof was then placed in each pot, and tomato seedlings not infected with root-knot nematodes were transplanted thereto.

Data set [2] concerns Ae. aegypti, Culex species mosquitoes, Anopheles species mosquitoes. Nature of the data set: mosquitos and midge adult activity. To be noted: used at 500 to 8,000 ppm. Type of data set: in vivo.
The conditions of data set [3]: cited from earlier work.
The test system of data set [4] is root-knot nematodes (Meloidogyne spp.). Description: nematocidal activity assessment of plant-derived materials in development. To be noted: geraniol used at 500 to 4,000 ppm.
In the next data set the test system is multiple insects. Description: insecticidal activity on multiple insects (oxymatrine). Type of data set: in vivo. To be noted: used at 500 to 6,000 ppm.
The subject of another data set is Black Sigatoka. Nature of the data set: field trials against black Sigatoka in bananas. The conditions noted are these: applied as tank mixes with tea tree oil.

Marks after values point to notes of the source that are not given here. Bounds are passed on as bounds.

Description for Black Sigatoka: Tea tree oil was used in disclosed experiments and trials as an 54 mulsifiable concentrated formulation. For field trials in bananas, tea tree oil was applied similarly to conventional synthetic fungicides, with mineral oil, surfactants, and/or just water. The following fungicides, registered for use against black sigatoka in bananas, were tested for comparison: azoxystrobin (Bankit 25 SC), trifloxystrobin (Flint, Tega 50 WG), difenoconazole (Score, Sico 25 EC), mancozeb (43 SC Duwest 80 WP), flutriafol (Impact, 125 SC) and tridemorph (Calixin 86 OL).

As to `C/C=C(\C)C(=O)O[C@H]1C[C@@H](OC(C)=O)[C@@]2(C(=O)OC)CO[C@H]3[C@@H](O)[C@@](C)([C@]45O[C@@]4(C)[C@H]4C[C@@H]5O[C@@H]5OC=C[C@@]54O)[C@H]4[C@]1(CO[C@]4(O)C(=O)OC)[C@@H]32` [Azadirachtin, azadirachtin], the “number of killed root-knot nematodes” value in data set [1] (2000 ppm, 1 day) amounted to 7; in data set [1] (2000 ppm, 2 days), 8; in data set [1] (2000 ppm, 3 days), 10.
Consider `CC(C)=CCC/C(C)=C/CO` [Geraniol, 3,7-dimethyl-2,6-octadien-1-ol], for which the “concentrations causing phytotoxicity in tomato seedlings” value in the data set on tomato seedlings (drench) is recorded as ≥ 4,000 ppm. Further, the “concentrations with no effect on tomato seedlings” value in the data set on tomato seedlings (drench) is ≤ 3,000 ppm. Moreover, the “Extent of phytotoxicity (0-5)” value with tomato seedlings (geraniol 100 ppm), in the data set with tomato seedlings (geraniol 200 ppm), in the data set on tomato seedlings (geraniol 330 ppm), in the data set with tomato seedlings (geraniol 500 ppm), in the data set on tomato seedlings (geraniol 1,000 ppm) and in the data set on tomato seedlings (geraniol 2,000 ppm) was 0 each time. Moreover, the “Extent of phytotoxicity (0-5)” value is listed as 0 with tomato seedlings (geraniol 3,000 ppm); 5 in the data set on tomato seedlings (geraniol 4,000 ppm); 5 in the data set on tomato seedlings (geraniol 5,000 ppm); 5 in the data set on tomato seedlings (geraniol 10,000 ppm); 5 with tomato seedlings (geraniol 20,000 ppm). Besides, the Phytotoxicity symptom result with tomato seedlings (geraniol 100 ppm), with tomato seedlings (geraniol 200 ppm), with tomato seedlings (geraniol 330 ppm), with tomato seedlings (geraniol 500 ppm), with tomato seedlings (geraniol 1,000 ppm) and in the data set with tomato seedlings (geraniol 2,000 ppm) was “No” in each case. Also, the Phytotoxicity symptom entry in the data set with tomato seedlings (geraniol 3,000 ppm) is given as “No”; in the data set on tomato seedlings (geraniol 4,000 ppm), “Withered”; with tomato seedlings (geraniol 5,000 ppm), “Withered”; in the data set on tomato seedlings (geraniol 10,000 ppm), “Withered”; with tomato seedlings (geraniol 20,000 ppm) it was “Withered”. Besides, in data set [2], the “mosquito and midge control” value is “superior mosquito and midge control was demonstrated without plant phytotoxicity or water toxicology”. For the same compound, in data set [3], the solubility in water entry was “insoluble in water”. Also, the “number of killed root-knot nematodes” value in data set [1] (2000 ppm, 1 day) is 15^a; in data set [1] (geraniol 2,000 ppm, 1 day), 15. The nematocidal control entry in data set [4] is “superior nematocidal control was demonstrated without plant phytotoxicity”.
`O=C1CCC[C@@H]2[C@H]3CCC[N+]4([O-])CCC[C@@H](CN12)[C@@H]34` (some centres unmarked) [Oxymatrine, oxymatrine]: in the data set on multiple insects, the insecticidal control result is listed as “superior insecticidal control was demonstrated without plant phytotoxicity”.
For the compound `CC1COC(Cn2cncn2)(c2ccc(Oc3ccc(Cl)cc3)cc2Cl)O1` (centres unmarked) [difenoconazole], the “control of Black Sigatoka” value in the data set with Black Sigatoka was “effectively controlled”.
On the same count and under the same terms, the value for `CON=C(C(=O)OC)c1ccccc1CON=C(C)c1cccc(C(F)(F)F)c1` [trifloxystrobin] was “effectively controlled”.
For the compound pyrethrin, the “number of killed root-knot nematodes” value was determined as 5 in data set [1] (2000 ppm, 1 day); 6 in data set [1] (2000 ppm, 2 days); 11 in data set [1] (2000 ppm, 3 days).

Source of the values: patent US12568961B2, “Multi-layer true spherical chitosan encapsulation of absolute (essential) oils for use in pesticidal activity” (GroPro Corporation, priority 2023, dated 2026).
